Values quoted from earlier work as cited in patent publication US8091275B2, “pH buffered plant nutrient compositions and methods for growing plants” (AeroGrow International, priority 2004, dated 2012).

System: plants
Details: phosphorous maintained at levels adequate to stabilize pH (1 to 10 mM)

For phosphorous, the toxicity to plants is listed as “toxic to plants”.
